The text below walks through data of ChEMBL document CHEMBL1201862, “PubChem BioAssay data set” (2004).

Molecules are shown by their SMILES. Calls of active or inactive are those of the source.

Assay [1] deals with Voltage-gated inwardly rectifying potassium channel KCNH2 (Homo sapiens, UniProt Q12809). The note with it: Potency.
A further assay has as its target Mu-type opioid receptor (Homo sapiens, UniProt P35372). The assay is classed as functional, cell-based.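 Also: U2OS cells with beta-arrestin recruitment to OPRM1 by beta-gal complementation.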
Assay [2] can be described thus: cells. The assay is classed as functional, cell-based.
Assay [3] can be described thus: cells. The assay is classed as functional, cell-based. The source holds these as a separate data set.
For assay [4], the target named is T1, Trace amine-associated receptor 1 (Homo sapiens, UniProt Q96RJ0).
T1 sequence (Q96RJ0 whole entry): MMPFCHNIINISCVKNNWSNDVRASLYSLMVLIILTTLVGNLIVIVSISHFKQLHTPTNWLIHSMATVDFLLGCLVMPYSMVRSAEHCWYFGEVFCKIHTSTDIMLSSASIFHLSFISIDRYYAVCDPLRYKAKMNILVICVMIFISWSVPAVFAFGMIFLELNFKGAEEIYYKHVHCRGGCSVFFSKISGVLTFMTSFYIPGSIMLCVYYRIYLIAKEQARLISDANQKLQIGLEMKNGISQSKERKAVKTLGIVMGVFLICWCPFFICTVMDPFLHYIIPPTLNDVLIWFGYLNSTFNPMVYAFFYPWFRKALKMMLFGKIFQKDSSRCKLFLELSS
Description: Counterscreen for agonists of the human trace amine associated receptor 1 (hTAAR1): Fluorescence-based cell-based high throughput dose response assay to identify hTAAR1 agonist that also desensitize TAAR1 receptor response. The class given is functional.

Assay [5] has as its target T1, Trace amine-associated receptor 1. Description: Fluorescence-based cell-based high throughput dose response assay to identify agonists of the human trace amine associated receptor 1 (TAAR1). The class given is functional.
The target of assay [6] is 5-hydroxytryptamine receptor 2A (Mus musculus, UniProt P35363). The class given is functional, cell-based.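 Also: CHO-K1 cells with tagged receptor and beta-arrestin; agonist potency measured as compound-induced activation of the receptor.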
For assay [7], the target named is T2, High affinity choline transporter 1 (Homo sapiens, UniProt Q9GZV3).
T2 sequence (Q9GZV3 whole entry): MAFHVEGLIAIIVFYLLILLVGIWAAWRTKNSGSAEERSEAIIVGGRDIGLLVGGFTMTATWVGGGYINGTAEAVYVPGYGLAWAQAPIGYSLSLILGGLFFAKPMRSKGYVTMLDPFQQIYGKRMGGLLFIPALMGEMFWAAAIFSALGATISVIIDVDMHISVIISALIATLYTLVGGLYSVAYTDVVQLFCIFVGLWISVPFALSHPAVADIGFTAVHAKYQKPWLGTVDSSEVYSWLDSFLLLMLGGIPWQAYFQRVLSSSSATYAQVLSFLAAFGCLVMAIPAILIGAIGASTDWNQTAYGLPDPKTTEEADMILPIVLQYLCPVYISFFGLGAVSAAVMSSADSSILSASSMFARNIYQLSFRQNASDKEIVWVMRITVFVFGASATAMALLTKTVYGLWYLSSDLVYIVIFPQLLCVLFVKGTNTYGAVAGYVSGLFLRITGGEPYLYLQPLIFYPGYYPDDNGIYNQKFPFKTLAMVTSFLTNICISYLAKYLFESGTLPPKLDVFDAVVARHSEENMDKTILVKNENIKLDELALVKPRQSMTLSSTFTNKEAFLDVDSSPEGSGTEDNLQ
Description: human choline transporter blockers, potency – cell-based, 10-point CRC, membrane potential dye, dose response (AID 588401).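 Also: membrane potential dye fluorescence of choline-evoked depolarization via CHT.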 The class given is functional.

The target in assay [8] is T2, High affinity choline transporter 1. The experiment in a line: human choline transporter blockers, potency – cell-based, 5-point CRC, membrane potential dye, dose response (AID 504840). The assay is classed as functional.
Assay [9] can be described thus: cAMP pathway inhibition in counterscreen cell line – TR-FRET cAMP detection, counter-screen for MC4R biased antagonist project, dose response (AID 602305).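 Also: U2OS cells stimulated with forskolin near its EC80 as the cAMP inducer; potency is for inhibition of forskolin-stimulated cAMP signaling.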 The assay is classed as functional, cell-based.
The next assay concerns the target Melanocortin receptor 4 (Homo sapiens, UniProt P32245). Description: inhibitors of MC4R cAMP signaling – cell-based, TR-FRET, biased antagonists, dose response (AID 602298).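 Also: antagonist potency against agonist-stimulated cAMP production.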 The assay is classed as functional.
Assay [10] has as its system HEK293. Description: inhibition of NOD1-driven NF-kB reporter – cell-based, luminescence, uHTS, primary screen (AID 1578). Particulars: Homo sapiens. The class given is functional.
For the next assay, the system named is INS1. The experiment in a line: INS-1E survival protection against cytokine death – cell-based, luminescence, retest, dose response (AID 449756).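 Also: cell death triggered by IL-1 beta plus TNF-alpha plus IFN-gamma mixture; protective hits raise ATP signal compared with cytokine alone wells.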 The class given is functional. The note with it: Rattus norvegicus.
A short description of assay [11]: non-specific 3'UTR reporter inhibition in Clone20-Shn3RL – cell-based, Renilla luciferase, cherry-picked, counter-screen for Shn3 inhibitor project, dose response (AID 624133). The assay is classed as functional.
Assay [12] addresses T3, Fatty acid synthase (Homo sapiens, UniProt P49327). The experiment in a line: inhibition of human FAS-TE enzyme activity – biochemical, endpoint fluorescence intensity, uHTS hits, dose response (AID 624327).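 Also: fluorescence from hydrolysis of an O-methyl fluorescein acyl ester substrate by the enzyme.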 The assay is classed as functional.
Assay [13] in a line: loss of viability in HepG2 cells – cell-based, CellTiter-Glo, cherry-picked, cytotoxicity control for Shn3 inhibitor project, dose response (AID 624134). The assay is classed as functional.
Assay [14] can be described thus: reduction of Shn3 3'UTR-driven luciferase in osteoblasts – cell-based, Clone20 osteoblasts, firefly luciferase, cherry-picked, dose response (AID 624132).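 Also: firefly luciferase luminescence from reporter carrying the Shn3 3'UTR in osteoblasts.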 The assay is classed as functional.
The next assay concerns CHO. The experiment in a line: CHO cell viability loss, potency – luminescence, cytotoxicity control for TLR9-MyD88 binding inhibitor project, dose response (AID 588339).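 Also: CHO cells stably coexpressing TLR9 and MyD88 fusions from primary screen; compound exposure lasted 48 hours before viability readout.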 The note with it: Cricetulus griseus. The class given is functional, cell-based, hamster.
A further assay has as its target Beta Lactamase (Pseudomonas aeruginosa, UniProt Q932Y6). The experiment in a line: BLA reporter interference, concentration series – BLA reporter cells, FRET fluorescence, artefact control for TLR9-MyD88 binding inhibitor project, dose response (AID 588341).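 Also: cell based assay in CHO-K1 cells stably expressing beta-lactamase.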 The class given is cell-based.
The test system of assay [15] is HEK293. Description: cells. The note with it: Homo sapiens. The assay is classed as functional, cell-based.
Assay [16] concerns HEK293. The experiment in a line: NOD2 signaling inhibitors in MDP-stimulated cells, cell-based, uHTS, luminescence (AID 2001). The assay is classed as functional. Particulars: Homo sapiens.
Assay [17] deals with T3, Fatty acid synthase. The experiment in a line: inhibition of human FAS-TE enzyme activity – biochemical, kinetic fluorescence intensity, dose response (AID 624326).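 Also: rate of fluorescence rise from hydrolysis of a fluorogenic O-methyl fluorescein ester substrate.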 The assay is classed as functional.
Assay [18] concerns HEK293. The experiment in a line: cells. The class given is functional, cell-based. Particulars: Homo sapiens. This is another data set of the same source.
Assay [19] addresses Nucleotide-binding oligomerization domain-containing protein 2 (Homo sapiens, UniProt Q9HC29). The experiment in a line: inhibition of NOD2-driven NF-kB reporter – cell-based, luminescence, uHTS, HEK293 (AID 1566). The class given is functional.
Assay [20] concerns the target T2, High affinity choline transporter 1. Description: human choline transporter radiolabel uptake blockers – cell-based, 3H-choline uptake, CHT LV-AA trafficking mutant, CRC, dose response (AID 602208). The assay is classed as functional.
Assay [21] in a line: inhibition of ARNT PAS-B/TACC3 complex formation – biochemical, AlphaScreen, cherry-picked samples, confirmation (AID 651703).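 Also: His-tagged ARNT PAS-B domain paired with GST-TACC3 E629A dimer coactivator fragment; potency of inhibitors that break up the complex and lower AlphaScreen signal.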 The assay is classed as functional, Homo sapiens.
Another assay addresses T4, Interleukin-8 (Homo sapiens, UniProt P10145).
T4 sequence (P10145 whole entry): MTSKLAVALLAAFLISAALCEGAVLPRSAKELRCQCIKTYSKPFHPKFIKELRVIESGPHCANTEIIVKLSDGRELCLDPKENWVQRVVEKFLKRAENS
The experiment in a line: Dose Response confirmation of uHTS small molecule hits for cystic fibrosis induced NFkb Inhibitors in a PAF-induced IL8 counterscreen. The assay is classed as functional. Particulars: read-out: IC50_Mean.

Assay [22] addresses Melanin-concentrating hormone receptor 1 (Homo sapiens, UniProt Q99705). The experiment in a line: Late-stage fluorescence-based counterscreen for antagonists of the G-protein coupled receptor 7 (GPR7): cell-based dose response assay to identify antagonists of the melanin-concentrating hormone receptor 1 (MCHR1) Set 5. The class given is functional.
The target of assay [23] is T5, Neuropeptides B/W receptor type 1 (Homo sapiens, UniProt P48145).
T5 sequence (P48145 whole entry): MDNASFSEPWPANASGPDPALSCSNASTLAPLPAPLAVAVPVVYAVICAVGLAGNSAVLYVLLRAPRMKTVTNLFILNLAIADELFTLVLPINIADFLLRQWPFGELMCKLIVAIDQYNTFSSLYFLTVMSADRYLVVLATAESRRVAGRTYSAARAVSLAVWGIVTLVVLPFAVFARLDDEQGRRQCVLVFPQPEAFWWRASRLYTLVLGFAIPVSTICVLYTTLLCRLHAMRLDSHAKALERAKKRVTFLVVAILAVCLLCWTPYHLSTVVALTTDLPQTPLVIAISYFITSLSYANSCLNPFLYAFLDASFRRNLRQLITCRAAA
Description: human NPBW1 receptor blockade, IC50 – cell-based, fluorescence, dose response, set 5, late-stage follow-up (AID 588566). The class given is functional.

A short description of assay [24]: THP-1 cell cytotoxicity, cytotoxicity control, set 4 (AID 504911). The assay is classed as functional. Particulars: Mycobacterium tuberculosis.
Assay [25] is described as follows: Vero cell cytotoxicity, cytotoxicity control for M. tuberculosis inhibitor project, purified and synthesized samples, set 3 (AID 504684). The assay is classed as functional. Particulars: […].

T3 sequence (P49327 whole entry): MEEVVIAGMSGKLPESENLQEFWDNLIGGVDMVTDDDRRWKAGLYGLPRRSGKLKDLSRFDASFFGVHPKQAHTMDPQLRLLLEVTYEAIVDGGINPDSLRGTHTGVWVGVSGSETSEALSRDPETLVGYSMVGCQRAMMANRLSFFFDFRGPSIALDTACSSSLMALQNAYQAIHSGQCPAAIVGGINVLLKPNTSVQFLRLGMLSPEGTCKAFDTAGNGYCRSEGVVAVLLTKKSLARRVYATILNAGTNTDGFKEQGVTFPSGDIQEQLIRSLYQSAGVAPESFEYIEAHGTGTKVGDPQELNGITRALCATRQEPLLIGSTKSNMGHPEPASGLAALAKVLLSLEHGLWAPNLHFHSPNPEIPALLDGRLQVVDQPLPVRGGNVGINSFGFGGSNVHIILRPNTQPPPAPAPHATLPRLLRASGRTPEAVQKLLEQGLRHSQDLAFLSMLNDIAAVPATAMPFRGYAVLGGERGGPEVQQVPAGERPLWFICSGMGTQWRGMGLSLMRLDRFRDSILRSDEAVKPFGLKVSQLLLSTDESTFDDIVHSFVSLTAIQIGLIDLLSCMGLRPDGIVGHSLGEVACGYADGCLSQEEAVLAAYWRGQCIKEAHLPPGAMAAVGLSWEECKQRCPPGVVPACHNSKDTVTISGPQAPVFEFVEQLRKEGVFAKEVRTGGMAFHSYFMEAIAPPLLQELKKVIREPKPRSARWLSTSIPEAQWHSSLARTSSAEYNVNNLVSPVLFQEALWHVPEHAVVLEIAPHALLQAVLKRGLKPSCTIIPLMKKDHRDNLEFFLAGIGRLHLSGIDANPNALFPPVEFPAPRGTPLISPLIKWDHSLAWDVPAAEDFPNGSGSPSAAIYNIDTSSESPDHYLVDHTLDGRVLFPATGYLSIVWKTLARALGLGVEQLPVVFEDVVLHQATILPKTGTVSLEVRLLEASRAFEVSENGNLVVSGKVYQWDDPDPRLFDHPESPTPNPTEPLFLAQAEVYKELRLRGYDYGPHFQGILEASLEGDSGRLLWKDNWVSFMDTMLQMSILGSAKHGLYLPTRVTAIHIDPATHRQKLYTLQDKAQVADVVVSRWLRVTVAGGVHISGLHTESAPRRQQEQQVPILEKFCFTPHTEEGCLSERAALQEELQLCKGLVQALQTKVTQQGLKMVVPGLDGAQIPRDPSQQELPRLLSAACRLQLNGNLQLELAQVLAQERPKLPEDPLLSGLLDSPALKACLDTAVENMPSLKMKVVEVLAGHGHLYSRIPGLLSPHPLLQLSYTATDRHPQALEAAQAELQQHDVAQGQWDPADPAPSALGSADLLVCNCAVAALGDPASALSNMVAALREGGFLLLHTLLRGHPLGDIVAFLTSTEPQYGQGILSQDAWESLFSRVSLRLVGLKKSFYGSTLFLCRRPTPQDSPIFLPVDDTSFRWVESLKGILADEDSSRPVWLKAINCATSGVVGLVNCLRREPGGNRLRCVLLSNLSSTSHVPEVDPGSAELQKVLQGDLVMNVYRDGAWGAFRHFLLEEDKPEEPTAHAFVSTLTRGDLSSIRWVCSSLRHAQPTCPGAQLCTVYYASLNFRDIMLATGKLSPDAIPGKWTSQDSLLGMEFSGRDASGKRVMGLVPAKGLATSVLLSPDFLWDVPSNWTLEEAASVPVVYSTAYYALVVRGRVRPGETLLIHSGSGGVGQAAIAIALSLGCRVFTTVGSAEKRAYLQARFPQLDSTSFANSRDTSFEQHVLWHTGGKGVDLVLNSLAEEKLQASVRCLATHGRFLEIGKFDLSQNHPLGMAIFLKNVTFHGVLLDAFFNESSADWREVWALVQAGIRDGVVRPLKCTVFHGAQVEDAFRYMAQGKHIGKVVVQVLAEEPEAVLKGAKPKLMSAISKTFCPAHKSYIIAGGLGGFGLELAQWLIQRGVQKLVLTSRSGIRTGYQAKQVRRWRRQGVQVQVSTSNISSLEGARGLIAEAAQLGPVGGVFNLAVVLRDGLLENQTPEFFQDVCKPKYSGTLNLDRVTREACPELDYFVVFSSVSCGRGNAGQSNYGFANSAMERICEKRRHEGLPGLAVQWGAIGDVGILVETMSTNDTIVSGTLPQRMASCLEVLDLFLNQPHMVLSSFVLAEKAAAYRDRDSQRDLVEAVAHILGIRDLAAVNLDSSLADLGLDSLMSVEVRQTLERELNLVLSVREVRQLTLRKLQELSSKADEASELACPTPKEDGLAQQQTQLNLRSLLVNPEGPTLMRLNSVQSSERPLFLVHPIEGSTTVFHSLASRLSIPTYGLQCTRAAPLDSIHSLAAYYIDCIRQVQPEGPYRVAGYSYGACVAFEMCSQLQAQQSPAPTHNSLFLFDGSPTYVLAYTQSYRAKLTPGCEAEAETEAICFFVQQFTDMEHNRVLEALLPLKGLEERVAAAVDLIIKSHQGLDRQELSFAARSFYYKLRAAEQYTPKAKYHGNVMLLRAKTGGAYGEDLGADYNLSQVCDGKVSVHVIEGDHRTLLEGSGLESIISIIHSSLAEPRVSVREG
Chain of Melanocortin receptor 4 (P32245 whole entry): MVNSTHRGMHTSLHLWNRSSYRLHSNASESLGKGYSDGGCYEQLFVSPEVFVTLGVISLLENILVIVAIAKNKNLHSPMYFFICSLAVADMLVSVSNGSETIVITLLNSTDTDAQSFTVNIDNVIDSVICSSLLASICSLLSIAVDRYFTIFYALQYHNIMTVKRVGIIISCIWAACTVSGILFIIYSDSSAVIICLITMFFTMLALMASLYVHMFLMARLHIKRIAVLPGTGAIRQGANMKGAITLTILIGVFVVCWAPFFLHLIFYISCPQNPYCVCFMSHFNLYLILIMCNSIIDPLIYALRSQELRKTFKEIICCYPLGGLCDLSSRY
Chain of Melanin-concentrating hormone receptor 1 (Q99705 whole entry): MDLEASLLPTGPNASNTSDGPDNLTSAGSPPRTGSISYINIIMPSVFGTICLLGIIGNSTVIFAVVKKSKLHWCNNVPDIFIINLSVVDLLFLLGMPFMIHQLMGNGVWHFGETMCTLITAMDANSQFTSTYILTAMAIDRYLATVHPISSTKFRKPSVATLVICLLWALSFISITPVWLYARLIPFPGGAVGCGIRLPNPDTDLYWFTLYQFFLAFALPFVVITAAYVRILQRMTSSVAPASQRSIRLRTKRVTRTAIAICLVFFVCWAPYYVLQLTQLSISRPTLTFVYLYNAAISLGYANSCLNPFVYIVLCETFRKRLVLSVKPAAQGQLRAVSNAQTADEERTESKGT
Chain of Mu-type opioid receptor (P35372 whole entry): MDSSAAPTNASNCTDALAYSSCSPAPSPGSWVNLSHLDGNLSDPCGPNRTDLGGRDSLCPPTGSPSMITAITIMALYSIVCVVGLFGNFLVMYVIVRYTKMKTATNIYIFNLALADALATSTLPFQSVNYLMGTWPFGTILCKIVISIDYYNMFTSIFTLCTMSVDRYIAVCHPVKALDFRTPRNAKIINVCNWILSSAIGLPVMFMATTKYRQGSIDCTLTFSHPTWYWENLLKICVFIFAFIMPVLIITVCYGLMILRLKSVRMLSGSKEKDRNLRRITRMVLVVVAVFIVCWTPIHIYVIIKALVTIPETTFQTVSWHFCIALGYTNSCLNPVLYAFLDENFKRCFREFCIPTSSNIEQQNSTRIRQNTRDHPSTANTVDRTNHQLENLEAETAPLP
Chain of Beta Lactamase (Q932Y6 whole entry): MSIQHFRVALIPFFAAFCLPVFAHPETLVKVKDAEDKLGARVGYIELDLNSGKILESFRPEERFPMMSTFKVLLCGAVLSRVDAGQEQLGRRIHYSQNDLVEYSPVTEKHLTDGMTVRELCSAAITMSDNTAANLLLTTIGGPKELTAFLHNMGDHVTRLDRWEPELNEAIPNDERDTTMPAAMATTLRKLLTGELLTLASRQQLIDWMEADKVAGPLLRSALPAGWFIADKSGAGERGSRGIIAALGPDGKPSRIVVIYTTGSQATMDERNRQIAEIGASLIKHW
Chain of Nucleotide-binding oligomerization domain-containing protein 2 (Q9HC29 whole entry, the tested form may be a part): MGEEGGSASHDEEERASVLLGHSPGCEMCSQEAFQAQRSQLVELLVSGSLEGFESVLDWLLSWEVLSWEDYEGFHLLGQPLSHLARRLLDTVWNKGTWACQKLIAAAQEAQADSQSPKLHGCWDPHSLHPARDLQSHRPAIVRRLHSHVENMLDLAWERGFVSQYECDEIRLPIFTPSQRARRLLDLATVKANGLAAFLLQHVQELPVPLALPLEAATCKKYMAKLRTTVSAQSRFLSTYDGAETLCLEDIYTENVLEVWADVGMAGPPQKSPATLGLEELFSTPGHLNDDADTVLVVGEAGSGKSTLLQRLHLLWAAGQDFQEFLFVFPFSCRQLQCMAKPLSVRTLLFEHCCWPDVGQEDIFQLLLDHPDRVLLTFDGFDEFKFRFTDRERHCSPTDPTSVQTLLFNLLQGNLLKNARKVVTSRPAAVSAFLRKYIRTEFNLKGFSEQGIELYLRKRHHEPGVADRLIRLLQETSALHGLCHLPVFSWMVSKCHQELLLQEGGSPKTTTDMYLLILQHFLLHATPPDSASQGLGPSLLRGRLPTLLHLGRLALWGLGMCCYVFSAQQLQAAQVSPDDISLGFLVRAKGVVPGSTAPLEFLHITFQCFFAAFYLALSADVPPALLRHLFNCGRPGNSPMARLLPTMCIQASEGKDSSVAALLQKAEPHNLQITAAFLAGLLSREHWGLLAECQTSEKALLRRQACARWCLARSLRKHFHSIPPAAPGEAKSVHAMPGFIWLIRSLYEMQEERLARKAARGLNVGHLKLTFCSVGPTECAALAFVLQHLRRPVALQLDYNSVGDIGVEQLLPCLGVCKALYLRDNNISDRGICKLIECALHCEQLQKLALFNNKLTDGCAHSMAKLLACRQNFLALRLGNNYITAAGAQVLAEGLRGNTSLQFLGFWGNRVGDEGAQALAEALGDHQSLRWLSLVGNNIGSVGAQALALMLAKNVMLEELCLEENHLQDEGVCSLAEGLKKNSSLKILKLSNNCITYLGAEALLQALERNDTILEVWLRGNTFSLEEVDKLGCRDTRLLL

On to `Oc1ccc(C2CNCc3sccc32)cc1O` (configuration not stated), for which the AC50 in assay [1] was 11.2 µM (inconclusive). For the same compound, the EC50 was 92.5 µM (inactive) on Mu-type opioid receptor, > 29.9 µM (inactive) in “cells [2]”, 0.752 µM (active) in assay [5] and 0.452 µM (active) in assay [6]. In addition, the IC50 in the assay “cells [3]” is > 29.9 µM (inactive); in [4], 4.33 µM (active).
Consider `O=[N+]([O-])c1cc(C(F)(F)F)cc([N+](=O)[O-])c1N1CCCNCC1`, for which the IC50 was 4.01 µM (active) in assay [7] and 10.2 µM (active) in assay [8].
In the case of `CC(C)(C)OC(=O)NCc1ccc(NC(=O)c2[nH]cnc2C(=O)N[C@@H](Cc2ccccc2)C(=O)OCc2ccccc2)cc1`, in assay [9], the IC50 was > 64.6 µM (inactive).
As to `CC(C)(C)OC(=O)NCc1ccc(NC(=O)c2nc[nH]c2C(=O)N[C@@H](Cc2ccccc2)C(=O)OCc2ccccc2)cc1`, at Melanocortin receptor 4, the IC50 is > 64.6 µM (inactive).
With `CCN(c1ccccc1)S(=O)(=O)c1ccc(NC(=O)c2nc(S(C)(=O)=O)ncc2Cl)cc1`, the EC50 (in the assay on HEK293 [10]; in assay [19]) was > 20 µM (inactive) each time. The AC50 is 5.28 µM (active) with INS1, 4.56 µM (active) in assay [11], 15.2 µM (active) in assay [13] and 0.562 µM (active) in assay [14]. Moreover, the IC50 at Fatty acid synthase [12] is 6.22 µM (active); with CHO it was 2.53 µM (active); at Beta Lactamase it was 7.96 µM (active); in the assay with HEK293 [15], > 20 µM (inactive); in the assay with HEK293 [16] it was 8.24 µM (inactive); at Fatty acid synthase [17] it was 3.48 µM (active). In addition, the IC50 with HEK293 [18] is > 20 µM (inactive).
For the compound `O=C1OCCC1Sc1nc2ccccc2n1Cc1ccccc1` (configuration not stated), the IC50 in assay [9] was > 64.6 µM (inactive); on Melanocortin receptor 4 it was 10.9 µM (inactive).
`COc1ccc(C(=O)NCCC2=CCCCC2)cc1OC1CCN(C(C)C)CC1`: the figures for the IC50 in [20], in [7] and in assay [8] were 16 µM (active), 3.16 µM (active) and 2.63 µM (active), respectively.
With `C#CCOCCOCCOCCNc1nc(N2CCN(C(=O)[C@H](CCCCN)n3cc([C@@H](N)CO)nn3)CC2)nc(N2CCN(C(=O)[C@H](Cc3ccc(O)cc3)n3cc([C@@H](N)CC(C)C)nn3)CC2)n1`, the AC50 in [21] is 121 µM (active).
As to `Nc1nccc(-c2ccc(-n3cnc4ccccc43)cc2)n1`, the IC50 on Interleukin-8 is 10.2 µM (inactive).
Consider `CCOC(=O)Cc1c(Cl)cnn(Cc2cccc3ccccc23)c1=O`, for which the IC50 is 10.9 µM (inactive) in assay [22] and 10.3 µM (inactive) in [23].
On the same counts, the results for `N#CC(c1cccnc1)c1c(Cl)cnn(Cc2cccc3ccccc23)c1=O` (configuration not stated) are 4.56 µM (active) and 0.975 µM (active).
`Cc1[nH]c(SCc2ccccc2Cl)nc(=O)c1C`: the CC50 in assay [24] and in assay [25] was > 100 µM (active) each time.
